Patent US11234960B2, “Compositions and methods for improving mitochondrial function and treating neurodegenerative diseases and cognitive disorders” (Amazentis SA, priority 2010, dated 2022)

Tests used:
Type in all cases: in vivo
[1] = tested on: maternally separated mice; assay: Morris water maze in early-life stress mice; conditions: early-life stressed mice, 90 mg/kg/day (FIG. 45)
Experimental: (§1) At postnatal day 1, pups were culled to have 6 pups per mother. From postnatal day 1 to 14, unpredictable maternal separation (MS) of a period of 3 hours daily was carried out. Maternal separation was performed at random times (from 8 am to 2 pm) to avoid the habituation of the mother to the procedure. The protocol consisted of removing pups from their mother to another cage at room temperature for a 3 hour period, after which the pups were returned to their original nest. These groups are denoted as early-life stress in the figures. A control group of dam/pups was left undisturbed and is denoted in the figures as normal.
(§2) One week after maternal separation mice were separated into two groups. One control group received the standard mouse chow diet (Untreated), while the other group received the ellagitannin punicalagin admixed into the food and designed to deliver a dose of 90 mg/kg/day to the mice. Treatment with the diet began 1 week after the termination of the maternal separation treatment. […]
The Morris water maze behavioral assay was employed to assess the cognitive impact of maternal separation. In this assay, cognitive learning is measured by the ability of a mouse to locate a hidden platform in a pool of opaque water. […] Escape latency to reach the platform was measured by a video tracking system.

[2] = tested on: maternally separated mice; assay: Rotarod motor learning in early-life stress mice; conditions: early-life stressed mice, 90 mg/kg/day (FIG. 44)
Experimental: as §1, §2
To measure the effects of pomegranate-derived compounds on the negative cognitive impacts of maternal separation, effects on motor learning were assayed using the rotarod behavioral assay. […] The latency to fall was measured with a cutoff time of 300 sec. […]

[3] = tested on: C57BL/6J mice exposed to chronic unpredictable stress; assay: Morris water maze in chronically stressed mice; conditions: 25 mg/kg/d (FIG. 34)
Experimental: Three weeks before the initiation of the chronic stress protocol mice were separated into four different groups. One group received standard mouse chow diet (Control), while the remaining three groups received varying doses of extract 1011, an extract derived from pomegranate juice. Low dose corresponded to an extract dose of 21 mg/kg/d of gallic acid equivalents of polyphenols (GAE PPE), the medium dose corresponded to an extract dose of 43 mg/kg/d of GAE PPE, the high dose corresponded to an extract dose of 86 mg/kg/d of GAE PPE (see Table 5).
Three weeks before the initiation of the chronic stress protocol, mice were separated into two groups. […]
The unpredictable chronic stress protocol involved exposing animals to a daily stressful situation at an unpredictable moment for 4 weeks (between 8 am and 4 pm, and randomly distributed over the 28 days). […] All animals were weighed and the state of their coat was evaluated on a regular basis (every 3-5 days). […]
Each trial started by introducing the mouse into the maze with the aid of a cup, facing the pool wall, and at one of four possible positions that were randomly balanced between trials and days. The distance between the mouse and the platform was measured at each sampling time, with 25 sampling times collected per second. […]

## O=C1O[C@H]2[C@@H]3OC(=O)c4cc(O)c(O)c(O)c4-c4c(O)c(O)c5oc(=O)c6c(c(O)c(O)c7oc(=O)c4c5c76)-c4c(cc(O)c(O)c4O)C(=O)OC[C@H]3OC(O)[C@@H]2OC(=O)c2cc(O)c(O)c(O)c2-c2c1cc(O)c(O)c2O (mixture of isomers) [punicalagin, 2,3 hexahydroxydiphenoyl-4,6-gallagylglucose]
[1]
  escape latency in Morris water maze (cognitive learning): reducing the time to learn the location of the hidden platform to levels observed in normal non-stressed mice
[2]
  motor learning, latency to fall from rotarod: restored motor learning skills

## O=c1oc2cc(O)ccc2c2ccc(O)cc12 [urolithin A, 3,8-Dihydroxydibenzo-α-pyrone]
[3]
  Morris water maze learning, variability of distance to platform between sequential trials: stabilization of this variability
